# Data from publication PMC11309765, “Mechanism of the blood-brain barrier modulation by cadherin peptides” (Exploration of drug science, 2024).
# Entries after “also recorded” stand apart in the source; their conditions may differ. Where a SMILES comes first, the peptide text is derived from it. Bridges are numbered along the chain shown (N, C = ends).
# Key:
# [1] = system: Madin-Darby canine kidney (MDCK) cell monolayers; details: Val6 mutation; cited from earlier work
# Text: Currently, the mechanism of binding as well as the EC1 binding site of ADT peptides have not been elucidated; thus, this study was aimed at using nuclear magnetic resonance (NMR) and molecular docking experiments to determine ADTC5 binding properties (Table 1) on EC1. […] Therefore, the Val6 residue was mutated to the Glu6 or Tyr6 re ...
# BBB tight junctions = details: cited from earlier work
# Text: As BBBMs, the in vivo activities of ADT and HAV peptides to modulate the BBB were transient and reversible. […] Different cadherin peptides produced different durations of the BBB opening for different sizes of del ...
# [2] = system: blood-brain barrier (BBB); details: cited from earlier work
# Text: In addition, Gd-DTPA delivery to the brain was enhanced when co-administered with ADTC5 in living mice upon detection with magnetic resonance imaging (MRI). […] Different cadherin peptides produced different durations of the BBB opening for different sizes of del ...
# [3] = biological target: T1, EC1 domain of human E-cadherin (Homo sapiens, UniProt P12830); assay: 1H-15N HSQC NMR titration of 15N-labeled EC1 (chemical shift perturbation, CSP); type: binding
# T1 construct: Strep-tag I (WSHPQFEK) (C); factor Xa cleavage site (IEGR) linker (C); made in house; host or cells: E. coli BL21(DE3), plasmid pASK-IBA6
# T1 sequence (P12830 155-292): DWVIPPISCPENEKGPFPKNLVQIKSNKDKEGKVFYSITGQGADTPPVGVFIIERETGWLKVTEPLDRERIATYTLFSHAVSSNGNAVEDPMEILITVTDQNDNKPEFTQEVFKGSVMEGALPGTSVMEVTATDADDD
# Text: Our previous method was used to express and purify the ^15N-labeled EC1 domain [22]. Briefly, the plasmid (pASK-IBA6, Genosys, Woodland, TX) contains DNA construct of 138 amino acid residues. The EC1 domain has 110 residues connected to 28 amino acids from the EC2 domain sequence at the C-terminus tail followed by a WSHPQFEK sequence of Streptag I that is linked by an IEGR sequence for a factor Xa cleavage. Then, the plasmid was transformed into competent E. coli BL21(DE3) cells (New England Biosciences, Ipswich, MA). The cells were incubated at 37°C overnight on a plate with lysogeny broth (LB) agar containing […] ampicillin. A single colony of E. coli cells was picked and incubated in 10 mL of LB media followed by the addition of 10 μL ampicillin at 100 mg/mL concentration. Then, the mixture was incubated in an orbital shaker at 250 rpm and 37°C. ^15N-labeled NH4Cl was added to 250 mL of M9 minimal media in 1 L Erlenmeyer flask to produce the ^15N-labeled EC1 domain. A 24 μL of anhydrotetracycline (2 mg/mL; Promega Inc., Madison, WI) was spiked into the cell culture when it reached OD550 of 0.5–0.6 to induce the EC1 protein expression. Then, the cell mixture was incubated at 30°C for 6–7 h followed by cell harvesting using centrifugation at 4,500 xg. The resulting cell pellets were stored at −80°C.
# For isolation of purified ^15N-EC1, E. coli cell pellets were lysed using 20,000 psi French press (Thermo Electron Corporation) in 10 mL of binding buffer. This binding buffer consists of 150 mM NaCl, 1.0 mM EDTA, 0.02% NaN3, and 100 mM Tris-HCl at pH = 8.0. The mixture was centrifuged at 21,000 xg, 4°C, and 1 h to get rid of cellular debris. The EC1 domain was in the supernatant and the Amicon Ultra protein concentrator [10 kDa molecular weight (MW) cut-off, EMD Millipore, Billerica, MA] was used to concentrate the protein upon centrifugation at 4,500 rpm, 20 min, and 4°C. […] The purity of pooled EC1 fractions was evaluated by SDS-PAGE. Protein concentration was calculated using UV spectrometry at 280 nm (coefficient absorption = 19,480 M^–1 cm^–1). […]
# [4] = system: blood-brain barrier (BBB); details: in-situ rat brain perfusion; cited from earlier work
smiles,measurement,setting,value
CC(=O)N[C@H]1CSSC[C@@H](C(N)=O)NC(=O)[C@H](C(C)C)NC(=O)[C@@H]2CCCN2C(=O)[C@@H]2CCCN2C(=O)[C@H]([C@@H](C)O)NC(=O)[C@H](CC(=O)O)NC1=O [ADTC5] (Ac-CDTPPVC-NH2; disulfide 1-7),modulatory activity in MDCK cell monolayers,[1],mutation of this residue reduced inhibitory activity in preventing the resealing of the paracellular pathway
same,anatomical structure of BBB tight junctions,BBB tight junctions,did not change
same,duration of paracellular porosity for Galbumin,[2]; 65 kDa Galbumin,less than 20 min
same,delivery of mAb to brain,[2]; 150 kDa mAb,had to be administered together with 150 kDa mAb for delivering mAb to the brain
same,Gd-DTPA delivery to the brain,"[2]; co-administered, living mice, MRI",enhanced
same,"brain deposition of peptides, Galbumin and mAb","[2]; i.v., co-administered, mice, mass spectrometry, NIRF, MRI","significantly enhanced brain deposition of peptides, Gd-labeled albumin (Galbumin), and mAb"
same,duration of in vivo paracellular opening for Gd-DTPA,[2]; small molecule Gd-DTPA,less than 4 h
same,EC1 residues with largest/significant NH chemical shift perturbation,"[3]; 1H-15N HSQC titration, pH 6.0","One of the dramatic changes was seen for residue I4 with larger CSP compared to other residues; also recorded: In addition to the strong effect of the NH of I4 residue, significant shifts were also observed in the NHs of I38, I53, V98, D103, and F113 residues; also recorded: large CSP changes on D103, and F113 residues at the C-terminal tail; also recorded: large CSP changes were also observed at the I4, I7, and S8 residues at the N-terminus domain"
same,relative binding affinity to EC1,"[3]; comparison among ADTC5, ADTC7, ADTC9",highest binding affinity to the EC1 domain of E-cadherin compared to ADTC7 and ADTC9; also recorded: binds better to the EC1 domain compared to ADTC7 and ADTC9
same,CSP result in words,"[3]; comparison of CSP profiles / conformational effect, 1H-15N HSQC","influences the conformation of the EC1 C-terminal tail; also recorded: All seven clusters have consistent high CSPs on active residues T97, V98, and D103; also recorded: binding of ADTC5 to EC1 may induce conformational change at the C-terminal tail; also recorded: binding of ADTC5 can cause conformational change at the N-terminal region or domain swapping region"
same,delivery of various molecules to the brain,[4],enhanced the delivery of various molecules to the brain
